“Also recorded” adds a separate entry of the source. Like-named read-outs stand apart in the source and are kept apart here.
Columns and labels:
enolase (ENO1 and ENO2) = experiment: Enolase inhibitory activity in vitro, isoform not distinguished (ENO1 and ENO2); assay type: biochemical, human
Experimental: (§4) Human ENO1 and ENO2 were overexpressed in the human D423 cell line and used for enzymatic assays. Inhibitors (PhAH, SF2312 and Deoxy-SF2312, Hex, Hepta, Pom-Hex, and Fosmidomycin) were incubated with the enzyme prior to addition of 5 mM 2-PG substrate. Enzymatic activity was measured by monitoring fluorescence of NADH at 340 nm Exitation/460 nm emission using an Lactate dehydrogenase/Pyruvate kinase linked assay which links the formation of PEP to the oxidation of NADH to NAD+, as we have described in published work (Muller et al., 2012). Enzymatic activity was normalized to that in the absence of the inhibitor (set to 1) and plotted as function of inhibitor concentration.
(§5) Enolase activity was measured using two different methods, either by a fluorometric NADH-linked assay or a direct spectrophotometric assay via formation of PEP. In the fluorescent assay, enolase activity was measured via NADH oxidation in a pyruvate kinase-lactate dehydrogenase coupled assay as previously described (Muller, et al., 2012). The assay is conducted in 10 mM KCl, 5 mM MgSO4, 100 mM triethanolamine at pH 7.4, with 400 μM NADH and 2 mM ADP. 2-Phosphoglycerate (2-PGA), pyruvate kinase (PK) and lactate dehydrogenase (LDH) are provided in excess, with conversion of 2-PGA to PEP by enolase being rate limiting. PEP (with ADP) is substrate of PK; pyruvate formed by this reaction is linked to NADH oxidation by LDH. Enolase activity is determined by measuring oxidation of NADH fluorescently by excitation at 340 nm and emission at 460 nm. The substrate concentration, if not otherwise indicated, was 5 mM 2-PGA. Fluorescence was measured using Omega Fluorescence Plate Reader (BMG Labtech). Alternatively, Enolase activity was measured directly by the appearance of PEP from 2-PGA via absorption at 240 nm (Marangos, et al., 1978). The assay medium was the same, except that all the auxiliary reagents (PK/LDH, NADH, ADP) are omitted. Both assays were conducted in a 96-well plated format with the direct assay performed in UV-transmissible plates.

ENO2 = ENO2 (Homo sapiens, UniProt P09104); experiment: Enolase enzymatic activity and Michaelis-Menten kinetic analysis, ENO2; details: for inhibition kinetics with respect to substrate 2-PGA: SF2312: at IC50
Experimental: Human ENO1 and ENO2 were overexpressed in the human D423 cell line and used for enzymatic assays. […] Enzymatic activity was measured by monitoring fluorescence of NADH at 340 nm Exitation/460 nm emission using an Lactate dehydrogenase/Pyruvate kinase linked assay which links the formation of PEP to the oxidation of NADH to NAD+, as we have described in published work (Muller et al., 2012). Enzymatic activity was normalized to that in the absence of the inhibitor (set to 1) and plotted as function of inhibitor concentration.
The Michaelis-Menten Kinetic analysis was performed using standard methods in the field such as those taught by Voet and Voet, 2011. The enzymatic activity of Enolase 1 or 2 v was determine over a concentration range of 10 mM to 0.5 mM 2-PG [S], in the presence of increasing concentrations of inhibitor [I].
Native lysates of mouse tissues and human cell lines were prepared using 20 mM Tris HCl, 1 mM EDTA, and 1 mM β-mercaptoethanol at pH 7.4 and homogenized using a Polytron homogenizer three times for a period of 10 s followed by sonication, after which the lysates were cleared by centrifugation at 20,000 g for 10 minutes. Enolase activity was measured using two different methods, either by a fluorometric NADH-linked assay or a direct spectrophotometric assay via formation of PEP. In the fluorescent assay, enolase activity was measured via NADH oxidation in a pyruvate kinase-lactate dehydrogenase coupled assay as previously described (Muller, et al., 2012). The assay is conducted in 10 mM KCl, 5 mM MgSO4, 100 mM triethanolamine at pH 7.4, with 400 μM NADH and 2 mM ADP. 2-Phosphoglycerate (2-PGA), pyruvate kinase (PK) and lactate dehydrogenase (LDH) are provided in excess, with conversion of 2-PGA to PEP by enolase being rate limiting. PEP (with ADP) is substrate of PK; pyruvate formed by this reaction is linked to NADH oxidation by LDH. Enolase activity is determined by measuring oxidation of NADH fluorescently by excitation at 340 nm and emission at 460 nm. The substrate concentration, if not otherwise indicated, was 5 mM 2-PGA. Fluorescence was measured using Omega Fluorescence Plate Reader (BMG Labtech). Alternatively, Enolase activity was measured directly by the appearance of PEP from 2-PGA via absorption at 240 nm (Marangos, et al., 1978). The assay medium was the same, except that all the auxiliary reagents (PK/LDH, NADH, ADP) are omitted. Both assays were conducted in a 96-well plated format with the direct assay performed in UV-transmissible plates.

human ENO1 = human ENO1 (Homo sapiens, UniProt P06733); experiment: Enolase enzymatic activity, NADH-linked pyruvate kinase/lactate dehydrogenase fluorescence assay, ENO1
Experimental: as §4, §5

[1] = test system: ENO1 null glioma cells (D423-MG); experiment: Growth inhibition by live imaging (Incucyte) / crystal violet; assay type: cell-based, human; details: for IC50: Homo sapiens, D-423MG, 72 h, confluence over 3 days, read-out: approximate IC50 for growth inhibition of ENO1 null glioma cells
Experimental: (§1) Cell proliferation of glioma cell lines was assayed either through crystal violet staining or by live-cell confluence measurements with the IncuCyte (Essen BioScience). Growth curves using the IncuCyte were generated by confluence imaging every 4 hours with duplicate replicates with an initial seeding of 1500 cells/well in 96-well plates. At the indicated time point, cells were fixed with 10% formalin and stained with crystal violet. Dye extraction was performed using 10% acetic acid solution, and absorbance was read at 595 nm. Apoptotic cells were counted by staining with YO-PRO®-1 Iodide (491/509, Life Technologies, Y3603). Apoptotic cells become permeable to YO-PRO®-1 while live cells are not stained. Alternatively, Propidium Iodide was employed (Life Technologies) instead of YO-PRO. Total cell number was quantified by Hoechst 33342 (Cat# H3570 Invitrogen). Cells were seeded as 2×10^3 cells/well in 96-well plates and treated in the presence or absence of doxycycline. On the day of apoptosis survey, old media was removed and each well was filled to 100 μl with fresh media. Hoechst and YO-PRO®-1 were mixed in 1:100 PBS and 10 μl of the mixture was added in each well gently without touching the cells for a final dilution of 1:1000 from stock. Plates were then incubated at 37° C. for 2 hours. Image capture and quantification was done by High Content Screening System—Operetta (Perkin Elmer). ATP content was measured with the luciferase/luciferin CellTiter-Glo® assay. Briefly, 100 μl of CellTiter-Glo® assay media was added to 96-well plates containing 100 μl of media and cells. Lysis was achieved by the […] in the buffer and vigorous pipetting, and luminescence was determined using an Omega Luminescence Plate Reader (BMG Labtech). Results were expressed relative to vehicle treated control.
(§2) The inhibitor effects were followed live-cell confluence measurements with the IncuCyte (Essen BioScience) as we described previously (Muller et al., 2012). Growth curves using the IncuCyte were generated by confluence imaging every 2 hours with quadruplicate replicates with and initial seeding of 10^3 cells/well in 96-well plates.
(§3) At the indicated time point (usually 2 weeks), cells were fixed with 10% formalin and stained with 0.1% crystal violet solution for 1 h as described previously (Muller et al., 2012). Dye extraction was performed using 10% acetic acid solution, and absorbance was read at 595 nm.

Maximum tolerated dose = experiment: Maximum tolerated dose; design: species or system NUDE immunocompromised mice; details: mouse, in vivo
[2] = test system: ENO1 deleted Glioblastoma cell line, Gli56; experiment: Intracranial Gli56 glioblastoma tumors tracked by T2 MRI; assay type: in vivo, NUDE immunocompromised mice; details: Pom-SF2312 at 4 MPK
Text: Animals (NUDE immunocompromised mice) injected intracranially with the ENO1 deleted Glioblastoma cell line, Gli56. After 30 days, tumors became readily visible by MRI (T2, the white hyperintense regions are tumor on the background grey of the normal brain). In the absence of treatment, Gli56 tumors grow continuously (Mouse #1, and Mouse #3, from Day 30 to Day 40). […] The tumors have not recurred after discontinuation of treatment.

[3] = Hematocrit / hemolytic anemia after IV administration; details: for hematocrit after treatment (drop from 45%): 100 mg/kg IV for longer than a week; for dose at which mild hemolytic anemia can be observed: as low as
Text: Erythrocytes are sensitive to disruptions in the glycolytic cycle as glycolysis is the cell's only source of energy in the form of ATP.

[4] = test system: ENO1 deleted glioma cells in neurospheres; experiment: Cell viability in 3 dimensional neurosphere conditions (tetramethylrhodamine); assay type: cell-based, human
Experimental: The cellular viability studies of 3-dimensional tumospheres was performed by using the vital dye, tetramethylrhomdamine ethyl ester (TMRE). […] For reference, a brightfield picture was also taken.
To more accurately model tumors, glioma cells were grown in 3 dimensional neurosphere conditions. The surface to volume ratio of the neurosphere was considerably smaller than in convention cell culture conditions and as such, compounds with poor cell penetration such as phosphonates have considerably lower efficacy than in conventional cell culture. […] However, under the same conditions, the cell permeable pro-drug, Pom-Hex, was highly toxic to ENO1 deleted glioma cells (FIG. 10B). Cell viability in spheres was monitored using 100 nM of tetramethylrhodamine, which is actively taken up by live but not dead cells.

normal human astrocytes = experiment: Sensitivity under conventional growth conditions, normal cells; assay type: cell-based
Experimental: as §2, §3

[5] = test system: VHL deleted kidney cancer cell lines RCC4 and 786-O; experiment: Live growth imaging (Incucyte) of VHL deleted vs VHL rescued kidney cancer cells; assay type: cell-based, human
Experimental: as §2
VHL is a common event in renal clear cell carcinoma. Deletion of VHL activates the HIF pathway, suppressing respiration and rendering cancer cells highly dependent on glycolysis. As such, efforts have been made to target glycolysis to achieve selective toxicity to VHL deficient kidney cancer. As such, the enolase inhibitor Pom-Hex was tested in VHL deteted kidney cancer cell lines. In two independent VHL deleted kidney cancer cell lines, RCC4 (bottom) and 786-O (top panel), the enolase inhibitor, Pom-Hex, was 4-8 times more toxic to the VHL deleted (upper), compared to isogenic rescued controls, expressing VHL from an ectopic locus (lower panels, italics). As in FIG. 12, growth in response to increasing doses of Pom-Hex was measured by live growth imaging using the Incucyte.

[6] = test system: D423-MG glioma cells (1p36 deletion spanning ENO1); experiment: Intracranial D423-MG glioma tumors tracked by T2 MRI; assay type: in vivo, Nude mice; details: 10 mg/kg intravenous for 11 days
Experimental: Nude mice were injected with D423-MG glioma cells which carry the 1p36 deletion spanning ENO1. Tumors formed around 30 days post injection and growth was tracked non-invasively by T2 MRI. In the absence of treatment, tumors grew continuously, ultimately killing the animal. The tumor area (right side of the brain) is distinguished from the normal mouse brain by high contrast. MRI measurements were performed in a 4.7 T Biospec USR47/40 (Bruker Biospin MRI, Billerica, Mass.) at the M. D. Anderson small animal imaging facility (SAIF). Briefly, animals were maintained under deep anesthesia with isoflurane with body temperature maintained by a heating blanket. Anesthetized mice were restrained with the head held in a stereotactic holder. Breathing was monitored and synchronized with the instrument. Routine tumor detection was done by T2-weighed imaging. First, a low resolution axial scan is taken to center the field properly, after which a series of high resolution axial and coronal scans are recorded.
Nude mice were injected with D423-MG glioma cells which carry the 1p36 deletion spanning ENO1. Tumors formed around 30 days post injection and growth was tracked non-invasively by T2 MRI. In the absence of treatment, tumors grew continuously, ultimately killing the animal. The tumor area (right side of the brain) was distinguished from the normal mouse brain by high contrast. […]

[7] = test system: cell lines heterozygously deleted for ENO1; experiment: Sensitivity under conventional growth conditions, ENO1 heterozygous lines; assay type: cell-based, human
Experimental: as §2, §3

[8] = Stability in cell culture media by proton-decoupled 31P NMR
Experimental: (§6) The stability of Pom-SF2312 in cell culture media (DMEM with 10% fetal bovine serum) was measured by proton-decoupled ^31P NMR on a Brucker 500 MHZ at the M. D. Anderson NMR core (FIG. 14).
(§7) 1.5 mM Pom-Hex and 1.5 mM Pom-SF2312 were dissolved in standard cell culture media (DMEM media containing 10% FBS with the addition of 10% D2O for locking of the NMR signal). Proton-decoupled ^31P NMR scans were taken at repeated intervals. The experiment was performed at room temperature.

[9] = test system: ATP levels in D423 ENO1-deleted glioma cells; experiment: ATP content (CellTiter-Glo); assay type: cell-based, human; details: 8 hours of treatment
Experimental: as §1

[10] = test system: conversion of 13C-glucose to 13C-lactate in D423 ENO1-deleted glioma cells; experiment: 13C-NMR tracing of uniformly labeled 13C-glucose to 13C-lactate; details: 48 hours, 10 mM 13C-uniformly labeled glucose
Experimental: Glucose labeled with heavy, non-radioactive, ^13C at carbon C-1 and ^13C at all carbon atoms were purchased from Cambridge Isotopes (CLM-420-1 and CLM-1396, respectively). Glucose free DMEM media was supplemented with 10 mM ^13C-1 or ^13C-all labeled Glucose. NMR metabolic tracing was performed by substituting conventional DMEM medium with glucose free DMEM medium, to which ^13C-1 glucose (Cambridge Isotopes) was supplemented at 10 mM. […] After 4 days, conditioned media was extracted with 80% methanol at −80° C., lyophilized and resuspended in D2O. Proton-decoupled ^13C NMR spectra were acquired using a 500 MHZ Bruker instrument in the M. D. Anderson NMR core facility.

[11] = up to 10 mM, lysates of D423 ENO1 and ENO2 expressing cells

Chain of ENO2 (P09104 whole entry): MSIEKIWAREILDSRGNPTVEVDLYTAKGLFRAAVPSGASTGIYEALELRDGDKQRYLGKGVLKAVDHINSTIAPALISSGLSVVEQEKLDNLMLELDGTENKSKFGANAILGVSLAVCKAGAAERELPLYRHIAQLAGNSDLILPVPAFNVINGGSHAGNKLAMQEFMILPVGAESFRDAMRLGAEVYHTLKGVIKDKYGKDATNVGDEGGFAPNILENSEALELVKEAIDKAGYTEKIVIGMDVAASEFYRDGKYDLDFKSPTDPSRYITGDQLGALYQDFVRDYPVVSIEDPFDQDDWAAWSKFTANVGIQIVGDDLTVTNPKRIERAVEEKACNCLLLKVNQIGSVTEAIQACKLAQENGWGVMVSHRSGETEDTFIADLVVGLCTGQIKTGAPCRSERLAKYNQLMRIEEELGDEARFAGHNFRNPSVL
Chain of human ENO1 (P06733 whole entry): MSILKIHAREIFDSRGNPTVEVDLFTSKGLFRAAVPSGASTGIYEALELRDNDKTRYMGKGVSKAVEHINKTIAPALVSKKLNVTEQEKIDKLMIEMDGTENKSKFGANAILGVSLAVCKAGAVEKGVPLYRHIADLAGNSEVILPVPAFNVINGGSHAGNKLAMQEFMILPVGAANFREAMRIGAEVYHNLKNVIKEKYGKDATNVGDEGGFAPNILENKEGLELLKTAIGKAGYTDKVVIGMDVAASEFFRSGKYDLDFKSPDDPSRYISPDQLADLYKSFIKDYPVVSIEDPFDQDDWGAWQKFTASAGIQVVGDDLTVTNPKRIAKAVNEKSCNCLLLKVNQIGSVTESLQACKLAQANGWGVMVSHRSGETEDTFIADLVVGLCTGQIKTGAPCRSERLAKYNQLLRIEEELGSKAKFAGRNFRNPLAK
Experimental for physchem: as §6, §7

SMILES: C[C@@H]1O[C@@H]1P(=O)(O)O [Fosfomycin]
- enolase inhibitory activity (enolase (ENO1 and ENO2); [11]): no enolase inhibitory activity
- enolase inhibitory activity (enolase (ENO1 and ENO2); up to 10 mM, lysates of D423 ENO1 and ENO2 expressing cells, listed as fosfomycin): no inhibitory activity was observed

SMILES: O=C1C(P(=O)(O)O)CCN1O (stereo not shown) [Deoxy-SF2312]
- IC50 (ENO2): ~2000 nM
- inhibition kinetics with respect to substrate 2-PGA (ENO2): clear competitive kinetics
- IC50 (human ENO1): ~2000 nM

SMILES: CC(C)(C)C(=O)OCOP(=O)(OCOC(=O)C(C)(C)C)C1CC(O)N(O)C1=O (stereo not shown) [Pom-SF2312, (((1,5-dihydroxy-2-oxopyrrolidin-3-yl)phosphoryl)bis(oxy))bis(methylene)bis(2,2-dimethylpropanoate)]
- half-life at 1.5 mM (physchem; cell culture media): 8 h
- IC50 [1]: < 75 nM
- maximum tolerated dose (Maximum tolerated dose): 4 MPK (mg/kg)

SMILES: CC(=O)OC1CC(P(=O)(OCOC(=O)C(C)(C)C)OCOC(=O)C(C)(C)C)C(=O)N1OC(C)=O (stereo not shown) [Diacetyl-POM-SF2312, (((1,5-diacetoxy-2-oxopyrrolidin-3-yl)phosphoryl)bis(oxy))bis(methylene) bis(2,2-dimethylpropanoate)]
- IC50 [1]: ~150 nM

SMILES: CC(C)(C)C(=O)OCOP(=O)(OCOC(=O)C(C)(C)C)C1CCCN(O)C1=O (stereo not shown) [Pom-Hex]
- IC50 (enolase (ENO1 and ENO2); against ENO1 and ENO2, incubated prior to 5 mM 2-PG, contaminant Hex not ruled out): ~100000 nM
- effect on Gli56 intracranial tumor growth [2]: profound tumor regression
- effect on hematocrit ([3]; doses as high as 10 mg/kg IV for up to 1 month): do not cause a statistically significant drop in hematocrit
- toxicity to ENO1 deleted glioma cells in neurosphere conditions [4]: highly toxic
- fold more potent than Hex ([4]; FIGS. 10A & 10B, ENO1-deleted glioma cells): ≥ 200 fold
- sensitivity of normal human astrocytes (normal human astrocytes): highly resistant
- half-life at 1.5 mM (physchem): 36 h
- IC50 [1]: ~35 nM
- sensitivity of ENO1 deleted D423 glioma cells ([1]; conventional growth conditions): sensitive to even low nM levels of the inhibitor
- times more toxic to VHL deleted compared to isogenic rescued controls [5]: 4-8 times
- effect on D423-MG intracranial tumor [6]: completely eradicated the tumor
- sensitivity of cell lines heterozygously deleted for ENO1 [7]: intermediate sensitivity
- further hydrolysis to the free phosphonate (SF2312, Hex) ([8]; 72 hours of incubation): did not proceed further
- time for half of the compound to hydrolyze in media ([8]; DMEM with 10% fetal bovine serum): more than 24 hours

SMILES: O=C1C(P(=O)(O)O)CCCN1O (stereo not shown) [Hex]
- potency against ENO2 versus ENO1 (IC50 lower / activity greater for ENO2) (ENO2; ENO2 over ENO1): approximately 6 fold
- Ki for ENO2 compared with ENO1 (ENO2; Lineweaver-Burke / Dixon plots): considerably lower Ki for ENO2 than ENO1
- inhibition kinetics with respect to substrate 2-PGA (ENO2): competitive inhibitor
- hematocrit after treatment (drop from 45%) [3]: 29%
- dose at which mild hemolytic anemia can be observed [3]: 50 mg/kg
- toxicity to ENO1 deleted glioma cells in neurosphere conditions [4]: only mildly sensitive

SMILES: CC(C)(C)C(=O)OCOP(=O)(O)C1CC(O)N(O)C1=O (stereo not shown) [Hemi-Pom-SF2312]
- hydrolysis to SF2312 in media ([8]; within 24 hours): did not appreciably hydrolyze

SMILES: O=CN(O)CCCP(=O)(O)O [Fosmidomycin]
- enolase inhibitory activity (enolase (ENO1 and ENO2); even concentrations of >10,000,000 nM): completely inactive
- enolase inhibitory activity (enolase (ENO1 and ENO2); [11]): no enolase inhibitory activity; also recorded: no inhibitory activity was observed

SMILES: O=C(CP(=O)(O)O)NO [PhAH, phosphonoacetohydroxamate]
- IC50 (ENO2): ~20 nM
- hematocrit after treatment (drop from 45%) [3]: 29%
- dose at which mild hemolytic anemia can be observed [3]: 50 mg/kg
- concentration reducing ATP levels by >40% [9]: > 100 µM
- concentration sufficient to decrease the ratio of 13C Lactate/13C glucose by 70% [10]: 50 µM
- IC50 (human ENO1): ~20 nM

SMILES: O=C(O)P(=O)(O)O [Foscarnet]
- enolase inhibitory activity (enolase (ENO1 and ENO2); [11]): no enolase inhibitory activity
- enolase inhibitory activity (enolase (ENO1 and ENO2); up to 10 mM, lysates of D423 ENO1 and ENO2 expressing cells, listed as foscanet): no inhibitory activity was observed
